Read-outs that look alike come from different tables or passages of the source.
Assays:
SK-HEP-1 cells = assay: Cellular dose response assay, SK-HEP-1; assay type: cell-based, human
Excerpt: (§1) HT-1080 (human [Homo sapiens] […] fibrosarcoma), A-673 (human [Homo sapiens] […] Ewing's sarcoma), and SK-HEP-1 (human [Homo sapiens] […] hepatic adenocarcinoma), cells were obtained from ATCC. Huh7 (human [Homo sapiens] […] hepatocellular carcinoma), HLF (human [Homo sapiens] […] hepatocellular carcinoma), HepG2 (human [Homo sapiens] […] hepatocellular carcinoma), cells were obtained from the Cancer Cell Bank at Columbia University Irving Medical Center. HT-1080, A-673, Huh-7, and HLF cells were grown in Dulbecco's Modified Eagle Medium (DMEM) supplemented with 10% heat inactivated fetal bovine serum (HI-FBS), 1% non-essential amino acids, and 1% penicillin streptomycin. HepG2 and SK-HEP-1 cells were grown in Eagle's Minimum Essential Medium (EMEM) supplemented with 10% HI-FBS, and 1% penicillin-streptomycin. All cells were cultured at 37° C. and 5% CO2.
(§2) HT-1080, HepG2, Huh7, HLF, and SK-HEP-1 cells were seeded into opaque white 384-well plates at 1500 cells per well then incubated at 37° C. with 5% CO2 overnight. The next day, compounds of interest were dissolved in DMSO and 12-point 2-fold dilution series were prepared with and without Fer-1. Cells were treated in triplicate (final DMSO concentration of 0.4% in all wells, including DMSO-only control wells) and incubated for a further 48 hours at 37° C. and 5% CO2. Cell viability was evaluated using CellTiter-Glo (Promega G7573) and luminescence was recorded on a Victor 5 plate reader. Data were analyzed in GraphPad Prism 9 and error bars represent standard deviation values for three technical replicates in a representative experiment.

HepG2 cells = assay: Cellular dose response assay, HepG2; assay type: cell-based, human
Procedure, shortened: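 Cells were seeded at 1500 per well, grown overnight, then treated in triplicate with 12-point 2-fold compound dilutions (0.4% DMSO final) for 48 h at 37 °C, 5% CO2. HT-1080 series were run with and without Fer-1. Viability was read by CellTiter-Glo luminescence.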

HLF cells = assay: Cellular dose response assay, HLF; assay type: cell-based, human
Excerpt: as §1, §2

Huh7 cells = assay: Cellular dose response assay, Huh7; assay type: cell-based, human
Excerpt: as §1, §2

GPX4 = target: T1, GPX4 (Homo sapiens, UniProt P36969); assay: GPX4 activity assay in cell lysates (NADPH-coupled); assay type: biochemical; set-up: endogenous in cells; host or cells: A-673 cell lysate; details: for IC50: mean±SD, n=3 (FIG. 84E), read-out: IC50 in the in vitro GPX4 activity assay
T1 sequence (P36969 1-170 isoform P36969-2): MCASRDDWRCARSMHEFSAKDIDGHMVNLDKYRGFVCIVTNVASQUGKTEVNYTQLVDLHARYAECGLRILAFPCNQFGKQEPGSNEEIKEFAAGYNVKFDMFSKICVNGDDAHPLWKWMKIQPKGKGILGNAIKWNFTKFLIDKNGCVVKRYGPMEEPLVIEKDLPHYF
Procedure, shortened: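 Native GPX4 in lysates of A-673 cells grown with 20 nM sodium selenite; lysate preincubated with compound 45 min at 37 °C in pH 8.0 buffer with 3 mM GSH, 0.5 mM NADPH and glutathione reductase. Reaction started with phosphatidylcholine hydroperoxide; NADPH consumption followed at 340 nm over 25 min; triplicates.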

[1] = compounds alone, Table 4, read-out: IC50 (uM) SKHEP1^a
[2] = with fer-1, Table 4, read-out: IC50 (uM) SKHEP1^b
[3] = compounds alone, Table 4, read-out: IC50 (uM) HEPG2^a
[4] = with fer-1, Table 4, read-out: IC50 (uM) HEPG2^b
[5] = compounds alone, Table 4, read-out: IC50 (uM) HLF^a
[6] = with fer-1, Table 4, read-out: IC50 (uM) HLF^b
[7] = compounds alone, Table 4, read-out: IC50 (uM) Huh7^a
[8] = with fer-1, Table 4, read-out: IC50 (uM) Huh7^b
[9] = 200 μM, generation 1, mean ± s.d., n = 3

SMILES	IC50 (SK-HEP-1 cells; [1])	IC50 (SK-HEP-1 cells; [2])	IC50 (HepG2 cells; [3])	IC50 (HepG2 cells; [4])	IC50 (HLF cells; [5])	IC50 (HLF cells; [6])	IC50 (Huh7 cells; [7])	IC50 (Huh7 cells; [8])	GPX4% inhibition at 20 (μM) (GPX4; generation 1)	GPX4% inhibition at 50 (μM) (GPX4; 50 μM, generation 1)	GPX4% inhibition at 100 (μM) (GPX4; generation 1)	GPX4% inhibition at 200 (μM) (GPX4; [9])	GPX4 inhibition (GPX4; 200 μM)	IC50 (GPX4)	other results
Cn1nc(C(=O)NC(C)(C)COC(=O)CCl)c2ccc(Br)cc21 [QW-314]	–	–	–	–	–	–	–	–	–	–	–	–	complete inhibition	5.8 µM	IC50 (SK-HEP-1 cells; Homo sapiens, SK-HEP1, read-out: IC50 (uM) SKHEP1^a): 10.8 µM; IC50 (SK-HEP-1 cells; Homo sapiens, SK-HEP1, read-out: IC50 (uM) SKHEP1^b): 106 µM; IC50 (HepG2 cells; Homo sapiens, HepG2, read-out: IC50 (uM) HEPG2^a): 11.3 µM; IC50 (HepG2 cells; Homo sapiens, HepG2, read-out: IC50 (uM) HEPG2^b): 222 µM; GI50 (HLF cells; Homo sapiens, HLF): ~1 µM; IC50 (HLF cells; Homo sapiens, HLF, read-out: IC50 (uM) HLF^a): 0.13 µM; IC50 (HLF cells; Homo sapiens, HLF, read-out: IC50 (uM) HLF^b): 80 µM; times less potent than RSL3 in cells (Huh7 cells): approximately 10 times; GI50 (Huh7 cells; Homo sapiens, Huh-7): ~1 µM; IC50 (Huh7 cells; Homo sapiens, Huh-7, read-out: IC50 (uM) Huh7^a): 1.8 µM; IC50 (Huh7 cells; Homo sapiens, Huh-7, read-out: IC50 (uM) Huh7^b): 92.9 µM; GPX4 inhibition (GPX4; 20 µM): complete inhibition in the assay even at 20 μM; inhibition at 20 µM (GPX4; read-out: GPX4% inhibition at 20 (μM)): 108 ± 5.3%; inhibition at 200 µM (GPX4; read-out: GPX4% inhibition at 200 (μM)): 93.1 ± 6%
CC(C)(COC(=O)CCl)NC(=O)c1nn(Cc2cc(Cl)cc(Cl)c2)c2cc(-c3ccc(N4CCOCC4)c(Cl)c3)ccc12 [QW-852]	–	–	–	–	–	–	–	–	–	–	–	–	–	–	GPX4 inhibitory activity, result in words (GPX4): greater GPX4 inhibitory activity than QW-446 at 2.5 μM concentration; GPX4% inhibition at 2.5 μM (GPX4; 4th generation): 88.2 ± 13.3%
COc1ccc(-c2ccc3c(C(=O)NC(C)(C)COC(=O)CCl)nn(C)c3c2)cc1Cl [QW-446]	–	–	–	–	–	–	–	–	–	–	–	–	–	0.49 µM	GPX4 inhibitory activity, result in words (GPX4): greater GPX4 inhibitory activity than QW-314 at 5 μM; GPX4% inhibition at 2.5 μM (GPX4): 79.1 ± 4.4%; GPX4% inhibition at 5 μM (GPX4; 5 μM): 88.1 ± 2.7%; GPX4 inhibition rate (GPX4; concentration not given): 90%
COc1cccc2[nH]c(C(=O)n3ccnc3)cc12 [LOC1886, reference compound]	–	–	–	–	–	–	–	–	–	–	–	–	–	–	IC50 (HepG2 cells; Homo sapiens, HepG2, compounds alone, read-out: IC50 (μM) HEPG2^a): 88.6 µM; IC50 (HepG2 cells; Homo sapiens, HepG2, compounds and fer-1 1.0 μM, read-out: IC50 (μM) HEPG2^b): 29.1 µM; inhibition at 200 µM (GPX4; 200 μM, mean ± s.d., n = 3, read-out: GPX4% inhibition at 200): 31.9 ± 6%
COC(=O)c1ccc([C@@H]2c3[nH]c4ccccc4c3C[C@@H](C(=O)OC)N2C(=O)CCl)cc1 [RSL3, reference compound]	0.05 µM	> 40 µM	5.4 µM	32.2 µM	0.25 µM	> 40 µM	0.6 µM	34.4 µM	–	–	–	–	–	7.6 µM	IC50 (SK-HEP-1 cells; compounds alone, Table 7, read-out: IC50 (uM) SKHEP1^a): 0.05 µM; IC50 (SK-HEP-1 cells; with fer-1, Table 7, read-out: IC50 (uM) SKHEP1^b): > 40 µM; IC50 (HepG2 cells; compounds alone, Table 7, read-out: IC50 (uM) HEPG2^a): 5.4 µM; IC50 (HepG2 cells; compounds alone, read-out: IC50 (μM) HEPG2^a): 5.4 µM; IC50 (HepG2 cells; compounds and fer-1 1.0 μM, read-out: IC50 (μM) HEPG2^b): 32.2 µM; IC50 (HepG2 cells; with fer-1, Table 7, read-out: IC50 (uM) HEPG2^b): 32.2 µM; IC50 (HLF cells; compounds alone, Table 7, read-out: IC50 (uM) HLF^a): 0.25 µM; IC50 (HLF cells; with fer-1, Table 7, read-out: IC50 (uM) HLF^b): > 40 µM; IC50 (Huh7 cells; compounds alone, Table 7, read-out: IC50 (uM) Huh7^a): 0.6 µM; IC50 (Huh7 cells; with fer-1, Table 7, read-out: IC50 (uM) Huh7^b): 34.4 µM; GPX4% inhibition at 200 (μM) (GPX4; 200 μM, mean ± s.d., n = 3): 112.5 ± 6.5%

Continued, in another order:

IC50 (SK-HEP-1 cells; [1])	IC50 (SK-HEP-1 cells; [2])	IC50 (HepG2 cells; [3])	IC50 (HepG2 cells; [4])	IC50 (HLF cells; [5])	IC50 (HLF cells; [6])	IC50 (Huh7 cells; [7])	IC50 (Huh7 cells; [8])	GPX4% inhibition at 20 (μM) (GPX4; generation 1)	GPX4% inhibition at 50 (μM) (GPX4; 50 μM, generation 1)	GPX4% inhibition at 100 (μM) (GPX4; generation 1)	GPX4% inhibition at 200 (μM) (GPX4; [9])	SMILES	GPX4 inhibition (GPX4; 200 μM)	IC50 (GPX4)	other results
10.1 µM	121 µM	> 400 µM	> 400 µM	16.6 µM	28.7 µM	15.8 µM	55 µM	66.7 ± 1.4%	79.2 ± 5.8%	62.7 ± 10.9%	87.3 ± 34.6%	CC(C)(COC(=O)CCl)NC(=O)c1cc2cc([N+](=O)[O-])ccc2[nH]1 [QW-148]	–	–	–
13.7 µM	62.8 µM	25.4 µM	51.5 µM	13.4 µM	34.3 µM	17.8 µM	55.4 µM	61.2 ± 0.5%	98.6 ± 4.1%	95.5 ± 6.2%	170.3 ± 33.5%	CC(C)(COC(=O)CCl)NC(=O)c1cc2ccc(Br)cc2[nH]1 [QW-156]	complete inhibition	–	GPX4 inhibition (GPX4; 50 μM): complete GPX4 inhibition
24.7 µM	340 µM	81.4 µM	291 µM	30 µM	278 µM	59.6 µM	110 µM	27.9 ± 5.5%	56.0 ± 6.2%	70.5 ± 9.2%	150.4 ± 20.3%	COc1ccc2cc(C(=O)NC(C)(C)COC(=O)CCl)[nH]c2c1 [QW-152]	complete inhibition	–	GPX4 inhibition (GPX4; 50 μM): approximately 60%
24.1 µM	52.8 µM	69 µM	104 µM	98.7 µM	113 µM	98.7 µM	113 µM	–	–	–	−3.3 ± 45.3%	CC(C)(COC(=O)CCl)NC(=O)c1cc2ccccc2[nH]1 [QW-147]	complete loss in potency of inhibitory activity	–	–
